{
  "source": "patent US20240189278A1",
  "about": "“NOVEL COMPOUNDS AND METHODS FOR INCREASING KLOTHO GENE EXPRESSION” (Klotho Therapeutics, Inc., priority 2017, published 2024)",
  "type_in_all_cases": "in vivo, mouse",
  "key": {"collagen-1": {"system": "collagen-1", "assay": "Collagen in aortas of aged mice (staining and western blot)", "protocol": "(§1) Animal study protocols. This example was performed according to the guide lines of the National Institute of Health on the care and use of laboratory animals and approved by the institutional Animal Care and Use Committee of University of Oklahoma Health Science Center. AU mice were housed in cages at room temperature (2S±PC) and were provided with Purina laboratory chow No 5001) and tap Water and lithium. 6 adult mice (12 months) and 20 old mice (24-26 months) mice were next in this study. The old (aged) mice were randomly divided into three subgroups and each group had 6 or 7 mice. […] The third group received no treatment Blood pressure was measured before and after treatment with the active agent at 1 week and 2 week. Pulse wave velocity (PWV) was measured after 2 weeks treatment with active agent all animals were sacrificed and perfused transcardially with PBS under deep anesthesia (ketamine xylazine, 90/10 mg, IP). […]\nHistological and Immunohistochemical Staining: Thoracic aortas were quickly excised and placed in cold (4′T) physiological saline solution. […] Aorta rings were post-fixed in 4% paraformaldehyde, embedded in paraffin and sectioned at […] thickness, Collagen was quantified by Masson' s trichrome staining as described previously. […] Blue-stained collagen areas were quantified with ImageJ (NIH, Bethesda, USA) film 4-5 regions per section. […]"}, "full-length Klotho": {"system": "full-length Klotho", "assay": "Western blot of full-length Klotho in kidney of aged mice", "settings": "kidney of 24-26 month-old mice"}, "AMPK": {"system": "AMPK", "assay": "Western blot of AMPK and p-AMPK, aortas of aged mice", "protocol": "(§2) Animal study protocols. This example was performed according to the guide lines of the National Institute of Health on the care and use of laboratory animals and approved by the institutional Animal Care and Use Committee of University of Oklahoma Health Science Center. AU mice were housed in cages at room temperature (2S±PC) and were provided with Purina laboratory chow No 5001) and tap Water and lithium. 6 adult mice (12 months) and 20 old mice (24-26 months) mice were next in this study. The old (aged) mice were randomly divided into three subgroups and each group had 6 or 7 mice. One subgroup received compound H (10 mg/kg/day1, IP, Enamine LLC, Monmouth Jct., NJ) and one group received an equal volume of DMSO (dimethyl sulfoxide, 5%) and served as a control. The third group received no treatment Blood pressure was measured before and after treatment with the active agent at 1 week and 2 week. Pulse wave velocity (PWV) was measured after 2 weeks treatment with active agent all animals were sacrificed and perfused transcardially with PBS under deep anesthesia (ketamine xylazine, 90/10 mg, IP). The aortas were then quickly removed, washed and cut into pieces for subsequent analyses.\n(§3) Western Blot Analysis: Protein samples from the thoracic aorta were prepared in Lysis buffer as described previously. The proteins ([…] were resolved by SOS-PAGE and transferred to a nitrocellulose membrane (Bio-Rad). The membrane was then incubated overnight (4° C.) with a primary antibody against collagen-1-elastin. M1′v1P2; MMP9, ALP (Abeam1 1:1000), TGF-1, TGF˜N3 (Santa Cmz, 1:100). RUX2, or aNTulmliu (Cell Signaling. 1:1000). Goat autimouse or goat anti rabbit horseradish peroxidase (1:2000 . . . 1:5,000; Santa Cruz Biotechnology) was used as a secondary antibody find incubated for 1 hour at room temperature. Specific proteins were detected by chemiluminescent methods using Amersham™ western blotting detection reagents (GE Healthcare, UK). Protein abundance on western blots was quantified densitometry using Image lab software (Bio-Rad, Hercules, CA)."}, "eNOS": {"system": "eNOS", "assay": "Western blot of eNOS and p-eNOS, aortas of aged mice", "protocol": "as §2, §3"}, "SIRT1": {"system": "SIRT1", "assay": "Western blot of SIRT1 and acetyl p53, aortas of aged mice", "protocol": "as §2, with “The aortas were then quickly removed, washed and cut into pieces for subsequent analyses.” left out\n(§4) Western Blot Analysis: Protein samples from the thoracic aorta were prepared in Lysis buffer as described previously. […] Protein abundance on western blots was quantified densitometry using Image lab software (Bio-Rad, Hercules, CA)."}, "ALP": {"system": "ALP", "assay": "Western blot of ALP, aortas of aged mice", "protocol": "as §2, with “The aortas were then quickly removed, washed and cut into pieces for subsequent analyses.” left out\nas §4"}, "MMP9": {"system": "MMP9", "assay": "Western blot of MMP9, aortas of aged mice", "protocol": "as §2, with “The aortas were then quickly removed, washed and cut into pieces for subsequent analyses.” left out\nas §4"}, "Klotho mRNA": {"system": "Klotho mRNA", "assay": "RT-PCR of Klotho mRNA in kidney of aged mice", "protocol": "as §2\nReverse transcription-PCR (RT-PCR): Total RNA was extracted using a Direct˜zol T!vl RNA Miniprep kit (Zymo Research, Irvine CA) from kidney of adult and aged mice. […]"}, "DNA demethylase": {"system": "DNA demethylase", "assay": "DNA demethylase activity in aged mice", "settings": "2 weeks treatment", "protocol": "as §1\nMeasurement of DNA Demethylase and DNA Methylation force Activity. The DNA demethylase and DNA methyltransferase activity was measured by using DNA demethylase activity qualification kit (Abeam˜Cambridge, MA) and methyltransferase coloritnetxic assay kit (Cayman Chemical Company, Ann Arbor, Michigan). […] The absorbance was read at […] for DNA methylene activity assay and 510 nm for DNA methyltransferase activity using BioTeck Multi-Mole Microplate Readers."}, "MMP2": {"system": "MMP2", "assay": "Western blot of MMP2, aortas of aged mice", "protocol": "as §2, with “The aortas were then quickly removed, washed and cut into pieces for subsequent analyses.” left out\nas §4"}, "aged mice": {"system": "aged mice", "assay": "Pulse wave velocity (arterial stiffness) in aged mice", "settings": "10 mg/kg/day IP, 2 weeks treatment", "protocol": "as §1\nMeasurement of Pulse Wave Velocity: Aortic PWV was measured as described previously. […] Velocities were measured with 6-mm crystal […] Doppler probes (Indus Instruments, Webster, TX) at the transverse aortic arch and 3.5 cm distal in the abdominal aorta and collected using Doppler signal processing workstation (Indus instruments). […]"}},
  "data": [
    {"compound": "O=C(Nc1ccccc1Cl)c1c[nH]c2ccccc12", "note": "[active agent, N-(2-chlorophenyl)-Ul-indde-3-carboxamide]", "values": [
      {"measurement": "Collagen production", "setting": "collagen-1", "result": "decreased"},
      {"measurement": "Full-length Klotho expression", "setting": "full-length Klotho", "result": "did not affect"},
      {"measurement": "AMPK activity", "setting": "AMPK; aortas of aged mice", "result": "increased"},
      {"measurement": "AMPK expression", "setting": "AMPK; old mice, western blot", "result": "increased"},
      {"measurement": "p-AMPK expression", "setting": "AMPK; old mice, western blot", "result": "increased"},
      {"measurement": "eNOS activity", "setting": "eNOS; aortas of aged mice", "result": "increased"},
      {"measurement": "eNOS expression", "setting": "eNOS; old mice, western blot", "result": "increased"},
      {"measurement": "p-eNOS expression", "setting": "eNOS; old mice, western blot", "result": "increased"},
      {"measurement": "SirT1 activity (deacetylation of p53)", "setting": "SIRT1; aorta of old mice", "result": "increased"},
      {"measurement": "SIRT1 expression", "setting": "SIRT1; aortas of aged mice", "result": "did not affect"},
      {"measurement": "ALP expression", "setting": "ALP", "result": "decreased"},
      {"measurement": "MMP9 protein expression", "setting": "MMP9", "result": "decreased"},
      {"measurement": "Secreted Klotho mRNA expression", "setting": "Klotho mRNA", "result": "increased"},
      {"measurement": "DNA demethylase activity", "setting": "DNA demethylase", "result": "increased"},
      {"measurement": "MMP2 protein expression", "setting": "MMP2", "result": "decreased"},
      {"measurement": "Pulse wave velocity (PWV)", "setting": "aged mice", "result": "decreased"}
    ]}
  ]
}
